Reference: paper PMC4710912, “High Proteolytic Resistance of Spider-Derived Inhibitor Cystine Knots” (International Journal of Peptides, 2015)
Entries after “also recorded” stand apart in the source; their conditions may differ. Where two headings read alike, the source gives them in different places. Bridge positions count the residues as written; N and C are the ends. Peptide text beside a SMILES is read from it.

Experiments:
in vitro = conditions: isolated enzyme elastase, pH 8
Method: (§1) Human prolactin releasing peptide (hPRP) was used to show a non-ICK example which contains evenly spaced multiple enzyme cleavage sites. […] To mimic gastric degradation of peptides, 10 μL 100 ng/μL pepsin was mixed with 50 μL 100 ng/μL peptides in 1.5 mL tubes containing 20 μL 1 M glycine (pH2.0) and 20 μL distilled water. To study intestinal degradation of peptides, 10 μL 100 ng/μL trypsin was mixed with 50 μL 100 ng/μL peptides in 1.5 mL tubes containing 10 μL 500 mM Tris-HCl (pH8.0) and 30 μL distilled water; 10 μL 100 ng/μL chymotrypsin was mixed with 50 μL 100 ng/μL peptides in 1.5 mL tubes containing 10 μL 500 mM Tris-HCl (pH8.0), 10 μL 100 mM CaCl2, and 20 μL distilled water; 10 μL 100 ng/μL elastase was mixed with each 50 μL 100 ng/μL peptide in 1.5 mL tube containing 10 μL 500 mM Tris-HCl (pH8.0), 10 μL 100 mM KCl, and 20 μL distilled water. Mixtures of peptides and enzymes were incubated at 37°C for 1–4 hours, and 10 μL aliquots was set aside every 1 hour and placed on ice. 5 μL tricine sample buffer was immediately added to the aliquots and denatured at 100°C for 5 minutes to stop digestion.
(§2) Denatured samples were separated by SDS-PAGE using SuperSep Ace 15–20% tricine gel (Wako, Osaka, Japan) at 200 V for 1 hour. Coomassie Brilliant Blue staining of the gel was performed with e-Stain 2.0 Protein Staining System using eStain Protein Staining Pad (GenScript, NJ, USA). Detected bands were digitized by an image scanner and quantified with Image Studio Digits (LI-COR Biosciences, NE, USA).
(§3) Measurements were converted to the rate of degradation compared to the undegraded values. Experiments were repeated in triplicate and results are indicated as means ± SEM. Statistical significance was determined by Tukey-Kramer test and P values of <0.05 were considered significant.

α-chymotrypsin = α-chymotrypsin (Bos taurus, UniProt P00766); assay: in vitro; conditions: pH 8
Method: as §1, §2, §3

elastase = elastase (Sus scrofa, UniProt P00772); assay: in vitro
elastase, sequence (P00772 27-266): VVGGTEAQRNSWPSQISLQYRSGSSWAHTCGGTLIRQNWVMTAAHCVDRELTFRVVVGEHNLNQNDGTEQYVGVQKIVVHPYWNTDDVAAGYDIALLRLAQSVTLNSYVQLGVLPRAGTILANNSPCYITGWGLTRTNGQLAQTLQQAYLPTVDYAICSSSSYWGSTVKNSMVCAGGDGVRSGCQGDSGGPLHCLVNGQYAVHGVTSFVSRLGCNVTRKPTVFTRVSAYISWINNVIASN
Method: as §1, §2, §3

rats = system: rats; design: method as in PMID 18728100; conditions: cited from earlier work
[1] = In vivo ProTx-II clearance from circulation; conditions: rat
Method: To observe ProTx-II concentration in circulation blood in vivo, three nonfasted male rats were injected with 0.1 mg/mL/kg of ProTx-II from the femoral vein under isoflurane anesthesia. 450 μL blood samples were taken from the tail vein at 0.083 (5 min), 0.25, 0.5, 1, 2, 4, 8, and 24 hours after the injection using Pasteur pipettes coated with heparin sodium. Plasma was obtained by centrifugation at 10,000 g for 3 minutes at 4°C and stored at −25°C protected from light until analysis. Animal experiments were conducted by Nemoto Science Co., Ltd. (Ibaraki, Japan) in accordance with the guideline of the animal experiment ethics committee (authorization number: 14-0024) and under approval of animal experiment ethics committee of AIST (authorization number: 10150125-A-20131029-001).
(§4) For sample preparation, 100 μL plasma was mixed with 20 μL 50% methanol and 200 μL 4% phosphoric acid. Whole sample mixture was added to the Oasis HLB 1 cc/10 mg extraction cartridge (Waters) equilibrated with 1 mL methanol and 1 mL distilled water. The column was washed with 1 mL 5% methanol and eluted with 1 mL methanol. The elute was dried under nitrogen flow and dissolved in 100 μL solvent A/B (30% : 70%, v/v) for LC-MS/MS. 10 μL sample was analyzed by a Waters LC-MS/MS unit; ACQUITY UPLC BEH HILIC, 1.7 μm, 2.1 mm I.D. × 100 mm (Milford, MA) was used at a flow rate of 0.3 mL/min by linear gradient elution (solvent A : solvent B = 30% : 70%, v/v, solvent A: 0.1% TFA, solvent B: acetonitrile) using electrospray ionization for Xevo TQ MS (Waters, MA, USA).

[2] = In vitro ProTx-II degradation in rat blood plasma; assay type: in vitro ADME; conditions: 1 μg/mL in rat (male SD) blood plasma, 37°C, 24 hours, aliquots at 0, 2, 4, 8, 24 hours; LC-MS/MS; mean of n = 3
Method: To observe peptide degradation in vitro, blood was extracted from three 8-week-old male SD rats after anesthesia with isoflurane inhalation and the plasma was separated by centrifugation at 1,850 g for 10 minutes at 4°C. Plasma was stored on ice and used within the day of the experiment. ProTx-II was added to the plasma to make 1 μg/mL mixture and incubated at 37°C for 24 hours, withdrawing 250 μL aliquots at 0, 2, 4, 8, and 24 hours. Samples were kept at −25°C away from light until analysis.
as §4

trypsin = system: trypsin
Method: as §1, with “Mixtures of peptides and enzymes were incubated at 37°C for 1–4 hours, and 10 μL aliquots was set aside every 1 hour and placed on ice. 5 μL tricine sample buffer was immediately added to the aliquots and denatured at 100°C for 5 minutes to stop digestion.” left out
Denatured samples were separated by SDS-PAGE using SuperSep Ace 15–20% tricine gel (Wako, Osaka, Japan) at 200 V for 1 hour. […] Detected bands were digitized by an image scanner and quantified with Image Studio Digits (LI-COR Biosciences, NE, USA).
Measurements were converted to the rate of degradation compared to the undegraded values. […] Statistical significance was determined by Tukey-Kramer test and P values of <0.05 were considered significant.

**Q.** What does the source list for `CC(C)C[C@@H]1NC(=O)[C@@H](NC(=O)CN)CSSC[C@@H]2NC(=O)[C@@H]3CSSC[C@@H](C(=O)N[C@@H](CC(N)=O)C(=O)N[C@@H](Cc4ccccc4)C(=O)N[C@@H](CO)C(=O)N[C@@H](Cc4ccccc4)C(N)=O)NC(=O)[C@H](CC(C)C)NC(=O)[C@H](CCCCN)NC(=O)[C@H](Cc4ccccc4)NC(=O)[C@H](CC(C)C)NC(=O)[C@H](CCCCN)NC(=O)[C@H](CO)NC(=O)[C@H](CSSC[C@H](NC(=O)[C@H](CCCCN)NC(=O)[C@H](Cc4c[nH]c5ccccc45)NC(=O)[C@H](Cc4c[nH]c5ccccc45)NC(=O)[C@H](Cc4ccccc4)NC(=O)[C@H](CCC(=O)O)NC1=O)C(=O)N[C@@H](CC(N)=O)C(=O)N1CCC[C@H]1C(=O)N[C@@H](CC(N)=O)C(=O)N[C@@H](CC(=O)O)C(=O)N[C@@H](CC(=O)O)C(=O)N[C@@H](CCCCN)C(=O)N3)NC(=O)[C@H](CCCCN)NC(=O)[C@H](CC(C)C)NC(=O)[C@H](CCCCN)NC(=O)[C@@H]1CCCN1C(=O)[C@H](CCCNC(=N)N)NC2=O` [GsMTx-4] (H-GCLEFWWKCNPNDDKCCRPKLKCSKLFKLCNFSF-NH2; disulfide 2-17, 9-23, 16-30)?
**A.** remaining at 4 h (in vitro): > 84%; degradation by chymotrypsin, overall result in words (α-chymotrypsin): not degraded at all

**Q.** With `CSCC[C@@H]1NC(=O)CNC(=O)[C@H](CCC(=O)O)NC(=O)[C@@H]2CSSC[C@H](NC(=O)[C@@H](N)Cc3ccc(O)cc3)C(=O)N[C@@H](CCC(N)=O)C(=O)N[C@@H](CCCCN)C(=O)N[C@@H](Cc3c[nH]c4ccccc34)C(=O)N[C@@H](CCSC)C(=O)N[C@@H](Cc3c[nH]c4ccccc34)C(=O)N[C@@H]([C@@H](C)O)C(=O)N[C@H]3CSSC[C@H](NC(=O)[C@H](C(C)C)NC1=O)C(=O)N[C@@H](CCCNC(=N)N)C(=O)N[C@@H](CC(C)C)C(=O)N[C@@H](Cc1c[nH]c4ccccc14)C(=O)N[C@H](C(=O)N[C@@H](CCCCN)C(=O)N[C@@H](CCCCN)C(=O)N[C@@H](CCCCN)C(=O)N[C@@H](CC(C)C)C(=O)N[C@@H](Cc1c[nH]c4ccccc14)C(=O)O)CSSC[C@H](NC(=O)[C@H](CCCCN)NC(=O)[C@H](CCCNC(=N)N)NC(=O)[C@H](CCC(=O)O)NC(=O)[C@H](CO)NC(=O)[C@H](CC(=O)O)NC3=O)C(=O)N2` [ProTx-II] as the molecule, how does the “peptide remaining undigested with elastase at 4 hours” value (elastase; elastase, Tris-HCl pH8.0, KCl, 37°C, 4 hours, SDS-PAGE, CBB staining, band quantification, mean of n = 3) read?
**A.** The value was “over 84%”.

**Q.** What about the remaining at 4 h (α-chymotrypsin; isolated enzyme chymotrypsin) of the same molecule?
**A.** Its remaining at 4 h is 86%.

**Q.** And the mortal plasma concentration (rats; 1 mg/kg dosage)?
**A.** The mortal plasma concentration was 3 µM.

**Q.** What about the “dosage reported to be lethal in rats” value (rats) of the same molecule?
**A.** Its value is 1 mg/kg.

**Q.** And the level at 8 h ([1]; male, plasma, iv, 0.1 mg/mL/kg into the femoral vein, 8 hours after administration, LC-MS/MS, n = 3, read-out: ProTx-II concentration in circulation blood at 8 hours (detection limit))?
**A.** Its level at 8 h is < 30 ng/mL.

**Q.** What about the “time for concentration to drop to the detection limit” value ([1]; 0.1 mg/mL/kg into the femoral vein, detection limit 30.0 ng/mL, LC-MS/MS, n = 3) of the same molecule?
**A.** Its value is ≤ 8 h.

**Q.** And the “concentration in circulation corresponding to the detection limit of 30 ng/mL” value ([1]; 8 hr, molar conversion of the detection limit)?
**A.** The value was 7.8 nM.

**Q.** And the “degradation in rat blood plasma in vitro (in words)” value [2]?
**A.** Its value is “not degraded at all; also recorded: No ProTx-II degradation was observed”.

**Q.** What does the source list for `CC(C)C[C@@H]1NC(=O)[C@H](Cc2c[nH]c3ccccc23)NC(=O)[C@H](Cc2ccc(O)cc2)NC(=O)[C@H](CCCNC(=N)N)NC(=O)[C@@H](NC(=O)[C@@H](N)CCC(=O)O)CSSC[C@@H]2NC(=O)[C@@H]3CSSC[C@@H](C(=O)N[C@H](C(=O)N[C@@H](Cc4c[nH]c5ccccc45)C(=O)N[C@@H](CC(=O)O)C(=O)NCC(=O)N[C@H](C(=O)N[C@@H](Cc4ccccc4)C(=O)N[C@@H](CO)C(=O)O)[C@@H](C)O)C(C)C)NC(=O)[C@H](Cc4c[nH]c5ccccc45)NC(=O)CNC(=O)[C@H](Cc4c[nH]cn4)NC(=O)[C@H](CCCNC(=N)N)NC(=O)[C@H](CCCNC(=N)N)NC(=O)[C@H](CO)NC(=O)[C@H](CSSC[C@H](NC(=O)CNC(=O)CNC1=O)C(=O)N[C@@H](CO)C(=O)N[C@@H](C)C(=O)NCC(=O)N[C@@H](CCC(N)=O)C(=O)N[C@@H]([C@@H](C)O)C(=O)N3)NC(=O)[C@H](C(C)C)NC(=O)[C@H](CC(C)C)NC(=O)[C@H](Cc1c[nH]cn1)NC(=O)[C@H](CCCCN)NC2=O` [ProTx-I]?
**A.** remaining at 4 h (elastase; isolated enzyme elastase, pH 8): 22%; degradation by elastase, overall result in words (elastase; pH 8): degraded; degradation by chymotrypsin within 1 hour (in words) (α-chymotrypsin): completely degraded; digestion by trypsin within 1-hour incubation (in words) (trypsin; pH 8): almost completely digested

**Q.** For `CC[C@H](C)[C@H](NC(=O)CNC(=O)[C@H](CCCNC(=N)N)NC(=O)[C@H](CO)NC(=O)[C@H](C)NC(=O)[C@H](Cc1ccc(O)cc1)NC(=O)[C@H](Cc1c[nH]c2ccccc12)NC(=O)[C@H](C)NC(=O)[C@@H]1CCCN1C(=O)[C@H](CC(N)=O)NC(=O)[C@@H](NC(=O)[C@H](CC(=O)O)NC(=O)[C@@H]1CCCN1C(=O)[C@@H](NC(=O)[C@H](CCCNC(=N)N)NC(=O)[C@@H](NC(=O)[C@H](CCC(=O)O)NC(=O)[C@H](CCSC)NC(=O)[C@H](CO)NC(=O)[C@H](Cc1c[nH]cn1)NC(=O)[C@H](CCCNC(=N)N)NC(=O)[C@H](Cc1c[nH]cn1)NC(=O)[C@@H](NC(=O)[C@H](CCCNC(=N)N)NC(=O)[C@@H](N)CO)[C@@H](C)O)[C@@H](C)CC)[C@@H](C)O)[C@@H](C)CC)C(=O)N[C@@H](CCCNC(=N)N)C(=O)N1CCC[C@H]1C(=O)N[C@H](C(=O)NCC(=O)N[C@@H](CCCNC(=N)N)C(=O)N[C@@H](Cc1ccccc1)C(N)=O)C(C)C` [hPRP, Human prolactin-releasing peptide], which “degradation by elastase, overall result in words” value (elastase; elastase, pH8.0, 37°C, up to 4 hours, SDS-PAGE, CBB staining, mean of n = 3) is on record?
**A.** The value was “eventually digested all”.

**Q.** And the “degradation by chymotrypsin within 1 hour (in words)” value (α-chymotrypsin)?
**A.** The value was “completely degraded”.

**Q.** What about the “digestion by trypsin within 1-hour incubation (in words)” value (trypsin; 10 μL 100 ng/μL trypsin + 50 μL 100 ng/μL peptide, Tris-HCl pH8.0, 37°C, 1 hour, SDS-PAGE, CBB staining, n = 3) of the same molecule?
**A.** Its value is “almost completely digested”.
